In patent publication US4966907A, “6-substituted 5-hydroxy-2,3-dihydrobenzofurans as inhibitors of leukotriene biosynthesis” (Merck & Co., Inc., priority 1988, dated 1990):
Read-outs that look alike come from different tables or passages of the source.

Assays:
[1] = test system: LTB4 production in isolated human polymorphonuclear leucocytes (PMN); assay: inhibition of LTB4 production in isolated human polymorphonuclear leukocytes (PMN), A23187-stimulated, radioimmunoassay; type: cell-based; conditions: Leucocyte, 5 min, 5 min at 37° C.
Description: A. Preparation of Human PMN
Human blood is obtained by antecubital venepuncture from consenting volunteers who denied having taken medication within the previous 7 days. The blood is immediately added to 10% (v/v) trisodium citrate (0.13M) or 5% (v/v) sodium heparin (1000 IU/mL). PMNs are isolated from anticoagulated blood by dextran sedimentation and centrifugation through Ficoll Hypaque (specific gravity 1.077), essentially as described by Boyum. (Boyum, A., Scand. J. Clin. Lab. Invest 1968, 21 (Supp 97), 77). Contaminating erythrocytes are removed by lysis following exposure to ammonium chloride (0.16M) in Tris buffer (pH 7.65), and the PMNs resuspended at 5×10^5 cells/mL in HEPES (15 mM) buffered Hanks balanced salt solution containing Ca^2+ (1.4 mM) and Mg^2+ (0.7 mM), pH 7.4. Viability is assessed by Trypan blue exclusion and is typically greater than 98%.
B. Generation and Radiommumoassay of LTB4
PMNs 0.5 mL; 2.5×10^5 cells) are placed in plastic tubes and incubated (37° C., 2 min) with test compounds at the desired concentration or vehicle control (DMSO, final concentration 0.2%). The synthesis of leukotriene B4 (LTB4) is initiated by the addition of calcium ionophore A23187 (final concentration 10 μM) or vehicle on control samples and allowed to proceed for 5 minutes at 37° C. The reactions are then terminated by the addition of cold methanol (0.25 mL) and samples of the entire PMN reaction mixture are removed for radiommunoassay of LTB4.
Samples (50 μl) of authentic LTB4 of known concentration in radiommunoassay buffer (RIA) buffer (potassium phosphate 1 mM; disodium EDTA 0.1 mM; Thimerosal 0.025 mM; gelatin 0.1%, pH 7.3) or PMN reaction mixture diluted 1:1 with RIA buffer are added to reaction tubes.
Thereafter [3H]LTB4 (10 nCu in 100 μl RIA buffer) and LTB4 antiserum (100 μL of a 1:3000 dilution in RIA buffer) are added and the tubes vortexed. Reactants are allowed to equilibrate by incubation overnight at 4° C. To separate antibody bound from free LTB4, aliquots (50 μL) of activated charcoal (3% activated charcoal in RIA buffer containing 0.25% Dextran T-70) were added, the tubes vortexed, and allowed to stand at room temperature for 10 minutes prior to centrifugation (1500×g; 10 min; 4° C.). The supernatents containing antibody-bound LTB4 are decanted into vials and Aquasol 2 (4 mL) is added. Radioactivity is quantified by liquid scintillation spectrometry. […] The specificity of the antiserium and the sensitivity of the procedure have been described in detail elsewhere. (Rokach, J.; Hayes, E. C.; Girard, Y.; Lombardo. D. L.; Maycock, A. L.; Rosenthal, A. S.; Young, R. N.; Zamboni, R.; Zweerink, H. J. Prostaglandins Leukotrienes and Medicine 1984, 13, 21). The amount of LTB4 produced in test and control (approx. 20 ng/10^6 cells) samples are then calculated. Inhibitory dose response curves are constructed using a four-parameter algorithm and from these the IC50 values are determined.

[2] = test system: leukotriene biosynthesis in human polymorphonuclear leukocytes; conditions: known inhibitors of leukotriene biosynthesis; cited from earlier work
[3] = Homo sapiens, calcium ionophore A23187 10 μM, 2.5×10^5 cells, read-out: Human Polymorphonuclear Leucocyte Activity IC50
[4] = standard compounds, human PMN, A23187 10 μM, read-out: IC50 values for LTB4 inhibition

Structure (SMILES)	IC50 [1, 3] [nM]	IC50 [1, 4] [nM]	activity in the human polymorphonuclear leukocytes assay [2]
COC(=O)c1ccc(OCCCOc2cc3c(cc2O)CCO3)cc1 [H O(CH2)3 OC6 H5-4-CO2 CH3, 4-(3-((2,3-dihydro-5-hydroxy-6-benzofuranyl)oxy)propoxy)benzoic acid methyl ester]	71	–	–
Oc1cc2c(cc1CCCOc1ccc(F)cc1)OCC2 [H (CH2)3 OC6 H4-4-F, 2,3-dihydro-6-(3-(4-fluorophenoxy)propyl)5-benzofuranol]	28	–	–
Oc1cc2c(cc1CCCSc1ccccc1)OCC2 [H (CH2)3 SC6 H5, 2,3-dihydro-6-(3-(phenylthio)propyl)-5-benzofuranol]	19	–	–
CC(Cc1ccc(O)c(O)c1)C(C)Cc1ccc(O)c(O)c1 (centres unmarked) [nordihydroguaiacetic acid, reference compound]	–	86	active
Oc1cc2c(cc1OCCCc1ccccc1)OCC2 [H O(CH2)3 C6 H5, 2,3-dihydro-6-(3-phenylpropoxy)-5-benzofuranol]	51	–	–
Oc1cc2c(cc1CCCOc1ccccc1)OCC2 [H (CH2)3 OC6 H5, 2,3-dihydro-6-(3-phenoxypropyl)-5-benzofuranol]	57	–	–
O=C1CCN(c2ccccc2)N1 [phenidone, reference compound]	–	9250	active
OCCc1ccc(OCCCc2cc3c(cc2O)CCO3)cc1 [H (CH2)3 OC6 H4-4-(CH2)2 OH, 2,3-dihydro-6-(3-(4-(2-hydroxyethyl)phenoxy)propyl)-5-benzofuranol]	41	–	–
CCCc1cc2c(c(Br)c1O)CCO2 [Br CH2 CH3 CH3, 2,3-dihydro4-bromo-6-propyl-5-benzofuranol]	49	–	–
COC(=O)Cc1ccc(OCCCOc2cc3c(cc2O)CCO3)cc1 [H O(CH2)3 OC6 H5-4-CH2 CO2 CH3, 4-(3-((2,3-dihydro-5-hydroxy-6-benzofuranyl)oxy)propoxy)benzeneacetic acid methyl ester]	72	–	–
Oc1cc2c(cc1SCCc1ccccc1)OCC2 [H S(CH2)2 C6 H5, 2,3-dihydro 6 (2 phenylethyl)thio-5-benzofuranol]	66	–	–
OCCc1cccc(OCCCc2cc3c(cc2O)CCO3)c1 [H (CH2)3 OC6 H4-3-(CH2)2 OH, 2,3-Dihydro-6-(3-(3-(2-hydroxyethyl)-phenoxy)propyl)-5-benzofuranol]	77	–	–
COC(=O)c1ccccc1OCCCOc1cc2c(cc1O)CCO2 [H O(CH2)3 OC6 H5-2-CO2 CH3, 2-(3-((2,3-dihydro-5-hydroxy-6-benzofuranyl)oxy)propoxy)benzoic acid methyl ester]	65	–	–
Cc1c(O)c(CCCSc2ccccc2)cc2c1CCO2 [CH3 (CH2)3 SC6 H5, 2,3-dihydro-4-methyl-6-(3-(phenylthio)propyl)5-benzofuranol]	19	–	–
Oc1cc2c(cc1SCCCc1ccccc1)OCC2 [H S(CH2)3 C6 H5, 2,3-dihydro-6-(3-phenylpropyl)thio-5-benzofuranol]	28	–	–
Oc1cc2c(cc1CCCOc1ccc(Cl)cc1)OCC2 [H (CH2)3 OC6 H4-4-Cl, 2,3-Dihydro-6-(3-(4-chlorophenoxy)propyl)-5-benzofuranol]	55	–	–
COC(=O)c1cccc(OCCCOc2cc3c(cc2O)CCO3)c1 [H O(CH2)3 OC6 H5-3-CO2 CH3, 3-(3-((2,3-dihydro-5-hydroxy-6-benzofuranyl)oxy)propoxy)benzoic acid methyl ester]	56	–	–
CCCc1ccc(OCCCc2cc3c(cc2O)CCO3)cc1 [H (CH2)3 OC6 H4-4-(CH2)2 CH3, 2,3-dihydro 6-(3-(4-propylphenoxy)propyl)-5-benzofuranol]	9	–	–
